Biological target: Protein farnesyltransferase (Homo sapiens, UniProt P49354+P49356)
Assay: Inhibition of Protein farnesyltransferase (FPT)
Assay type: protein-complex assay
Conditions: read-out: I50

With `CC(C)C[C@H](NC(=O)[C@@H](NC(=O)CCS)C(C)C)C(=O)N[C@@H](CO)C(=O)O` the IC50 was 1 µM.

`CC(C)C[C@H](NC(=O)[C@@H](NC(=O)c1ccc(OCc2ccccc2)cc1)C(C)C)C(=O)N[C@@H](CO)C(=O)O` showed an IC50 of 166 µM.

In the case of `CC(C)C[C@H](NC(=O)[C@@H](NC(=O)c1ccc(O)cc1)C(C)C)C(=O)N[C@@H](CO)C(=O)O`, the IC50 is reported as over 360 µM.

Compound `CC(C)C[C@H](NC(=O)[C@@H](NC(=O)c1cc(O)ccc1OCc1ccccc1)C(C)C)C(=O)N[C@@H](CO)C(=O)O` has an IC50 of 137 µM.

For `CC(C)C[C@H](NC(=O)[C@@H](NC(=O)c1ccccc1OCc1ccccc1)C(C)C)C(=O)N[C@@H](CO)C(=O)O`, the IC50 was 63 µM.

`CC(C)C[C@H](NC(=O)[C@@H](NC(=O)c1cccc(O)c1)C(C)C)C(=O)N[C@@H](CO)C(=O)O` gave an IC50 of 29 µM.

`CC(C)C[C@H](NC(=O)[C@@H](NC(=O)c1ccccc1O)C(C)C)C(=O)N[C@@H](CO)C(=O)O` gave an IC50 of over 360 µM.

With `CC(C)C[C@H](NC(=O)[C@@H](NC(=O)c1cccc(OCc2ccccc2)c1O)C(C)C)C(=O)N[C@@H](CO)C(=O)O` the IC50 was over 360 µM.

Compound `CC(C)C[C@H](NC(=O)[C@@H](NC(=O)c1cccc(O)c1OCc1ccccc1)C(C)C)C(=O)N[C@@H](CO)C(=O)O` has an IC50 of 157 µM.

`CC(C)C[C@H](NC(=O)[C@@H](NC(=O)[C@@H](N)CO)C(C)C)C(=O)N[C@@H](CO)C(=O)O` was tested, and the IC50 was over 360 µM.

In the case of `CC(C)C[C@H](NC(=O)[C@@H](NC(=O)c1cccc(OCc2ccccc2)c1)C(C)C)C(=O)N[C@@H](CO)C(=O)O`, the IC50 is reported as over 360 µM.
